Laboratory results: PubChem BioAssay (NCI)
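In this assay, cells in 96-well plates receive the compound at five concentrations for 48 hours. Endpoints are linearly interpolated between the surrounding concentrations. TGI is the concentration that stops growth completely.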

Key:
Assay in all cases: NCI tumour cell line growth inhibition, 48 h
NCI-H522 lung = system: NCI-H522 lung
BT-549 breast = system: BT-549 breast
MDA-MB-231 breast = system: MDA-MB-231 breast
UACC-257 melanoma = system: UACC-257 melanoma
COLO 205 colon = system: COLO 205 colon
OVCAR-3 ovarian = system: OVCAR-3 ovarian
M14 melanoma = system: M14 melanoma
MOLT-4 leukemia = system: MOLT-4 leukemia
NCI-H460 lung = system: NCI-H460 lung
MCF7 breast = system: MCF7 breast
HT29 colon = system: HT29 colon
SK-MEL-5 melanoma = system: SK-MEL-5 melanoma
NCI-H226 lung = system: NCI-H226 lung
HCT-116 colon = system: HCT-116 colon
KM12 colon = system: KM12 colon
LOX IMVI melanoma = system: LOX IMVI melanoma
SF-268 CNS = system: SF-268 CNS
786-0 renal = system: 786-0 renal
SNB-19 CNS = system: SNB-19 CNS

Row | Compound | TGI (NCI-H522 lung) [µM] | TGI (BT-549 breast) [µM] | TGI (MDA-MB-231 breast) [µM] | TGI (UACC-257 melanoma) [µM] | TGI (COLO 205 colon) [µM] | TGI (OVCAR-3 ovarian) [µM] | TGI (M14 melanoma) [µM] | TGI (MOLT-4 leukemia) [µM] | TGI (NCI-H460 lung) [µM] | TGI (MCF7 breast) [µM] | TGI (HT29 colon) [µM] | TGI (SK-MEL-5 melanoma) [µM] | TGI (NCI-H226 lung) [µM] | TGI (HCT-116 colon) [µM] | TGI (KM12 colon) [µM] | TGI (LOX IMVI melanoma) [µM] | TGI (SF-268 CNS) [µM] | TGI (786-0 renal) [µM] | TGI (SNB-19 CNS) [µM]
1 | COc1ccc2[nH]c3c(c2c1)CCc1c(OC)cccc1-3 | > 100 | > 100 | > 100 | > 100 | > 100 | > 100 | > 100 | > 100 | > 100 | > 100 | > 100 | > 100 | > 100 | > 100 | > 100 | > 100 | > 100 | > 100 | > 100
2 | COC(=O)[C@H](Cc1ccccc1)NC(=O)OCC1OC(n2cc(C)c(=O)[nH]c2=O)CC1N=[N+]=[N-] (stereo partly drawn) | > 100 | > 100 | > 100 | > 100 | > 100 | > 100 | > 100 | > 100 | > 100 | > 100 | > 100 | > 100 | > 100 | > 100 | > 100 | > 100 | > 100 | > 100 | > 100
3 | Cc1nc(-c2cccnc2)sc1C(=O)CC(=O)C(=O)Nc1cccc(NC(=O)C(=O)CC(=O)c2sc(-c3cccnc3)nc2C)n1 | > 100 | > 100 | > 100 | > 100 | > 100 | > 100 | > 100 | > 100 | > 100 | > 100 | > 100 | > 100 | > 100 | > 100 | > 100 | > 100 | > 100 | > 100 | > 100
4 | O=P(O)(O)c1ccc2c(c1)OCCOCCOCCOCCO2 | > 100 | > 100 | > 100 | > 100 | > 100 | – | – | > 100 | > 100 | > 100 | > 100 | > 100 | > 100 | > 100 | > 100 | > 100 | > 100 | > 100 | > 100
5 | CCCC(=O)Nc1cc(/C=C/C(=O)N2CC(CCl)c3ccc([N+](=O)[O-])cc32)n(C)c1 (stereo not drawn) | > 100 | > 100 | > 100 | > 100 | > 100 | > 100 | > 100 | – | – | > 100 | > 100 | – | > 100 | > 100 | > 100 | > 100 | > 100 | > 100 | > 100
6 | O=C(O)CN1CCN2CCCCCCCCN(CC1)CCN(CC(=O)O)CC2 | > 100 | > 100 | > 100 | > 100 | > 100 | > 100 | > 100 | > 100 | > 100 | > 100 | > 100 | > 100 | > 100 | > 100 | > 100 | > 100 | – | > 100 | > 100
7 | COc1cc(/C=C2\N=C(c3ccccc3)N(c3nc4ccccc4s3)C2=O)cc(OC)c1OC | 35.8 | 59.4 | > 100 | > 100 | – | 60.4 | > 100 | 46.6 | > 100 | > 100 | > 100 | > 100 | > 100 | > 100 | > 100 | > 100 | > 100 | 69.3 | > 100
8 | COc1ccc(C/C=C(\C)CCO)cc1 | > 100 | > 100 | > 100 | > 100 | > 100 | > 100 | > 100 | > 100 | > 100 | > 100 | > 100 | > 100 | – | > 100 | > 100 | > 100 | > 100 | > 100 | > 100
9 | Cc1ccc(N2C=Nn3c(nc4sc5c(c4c3=O)CCCC5)C2)cc1 | > 100 | > 100 | > 100 | > 100 | > 100 | > 100 | > 100 | > 100 | > 100 | > 100 | > 100 | > 100 | > 100 | > 100 | > 100 | > 100 | > 100 | > 100 | > 100
10 | COc1ccc(N[C@H](CS(=O)c2ccc(C)cc2)C(F)(F)F)cc1 (stereo partly drawn) | > 100 | > 100 | > 100 | > 100 | > 100 | > 100 | > 100 | > 100 | > 100 | > 100 | > 100 | > 100 | > 100 | > 100 | > 100 | > 100 | – | > 100 | > 100
11 | CC(C)(C)OC(=O)NCC(c1c[nH]c2cc(Br)ccc12)c1c[nH]c2cc(Br)ccc12 | 32.7 | 30.3 | 32.4 | 44.6 | 34.7 | 29.1 | 37.3 | > 100 | 48.7 | 34.7 | 33.5 | 34.2 | 34.5 | 31.4 | 37.3 | 32.2 | 31.7 | 33.5 | 46.2
12 | Cc1cc(-c2nc3ccc(F)cc3s2)ccc1NC(=O)C(N)CCCCN (stereo not drawn) | 17.3 | 28.3 | 23.1 | 28.1 | 14.8 | 22.4 | 6.57 | 7.94 | 5.64 | 4.46 | 13.1 | 20.4 | 24 | 10.3 | 4.87 | 4.73 | 19 | 8.76 | 25
13 | C[C@H](CCC(=O)O)[C@H]1CC[C@H]2[C@@H]3[C@H](O)[C@H](O)[C@@H]4C[C@H](O)CC[C@]4(C)[C@H]3CC[C@]12C | > 100 | > 100 | > 100 | > 100 | > 100 | – | > 100 | > 100 | > 100 | > 100 | > 100 | – | > 100 | > 100 | > 100 | > 100 | > 100 | > 100 | > 100
14 | CCN(CC)CCOCCOCC1(c2ccc(Cl)c(Cl)c2)CCCCC1 | 22.1 | 26 | 23 | 9.57 | 11.9 | 22.3 | 3.29 | 13.2 | 13.3 | 20.3 | 7.53 | 4.88 | 35.1 | 18.8 | 17.3 | 21.4 | 25.3 | 9.07 | 26.4
15 | COC(=O)c1ccc(Oc2nc3ccc(C(F)(F)F)cc3nc2-c2ccccc2)cc1 | > 100 | > 100 | > 100 | > 100 | > 100 | > 100 | – | > 100 | > 100 | > 100 | > 100 | > 100 | > 100 | > 100 | > 100 | > 100 | > 100 | > 100 | –
16 | CCCC(=O)Oc1c2ccsc2c(OC(=O)CCC)c2ccsc12 | 4.85 | 2.83 | 10.3 | 1.82 | 19.7 | 4.5 | > 12.8 | 7.63 | 3.12 | 7.55 | 12 | – | 7.15 | 4.82 | 13.8 | 10.7 | 10.7 | 8.04 | 5.28
17 | C[n+]1c2ccccc2n2c3ccccc3c(NCc3ccco3)c(C#N)c21 | 2.83 | > 100 | 16.6 | 57.4 | 19.9 | > 49.6 | 5.62 | – | 4.19 | 11.9 | > 100 | 13.7 | 16 | 14.7 | 22 | 3.65 | 11.3 | 12.8 | 26.6
18 | CCOC(=O)C1=NN(c2ccc(C)cc2)C2(c3ccccc3)C=C(c3ccccc3)N(C)CCN12 (stereo not drawn) | > 100 | > 100 | > 100 | > 100 | > 100 | > 100 | > 100 | > 100 | – | > 100 | > 100 | > 100 | > 100 | > 100 | > 100 | > 100 | > 100 | > 100 | > 100
19 | O=C1/C(=C/c2ccc([N+](=O)[O-])cc2)CCCc2ccccc21 | > 100 | > 100 | > 100 | > 100 | > 100 | > 100 | > 100 | > 100 | > 100 | > 100 | > 100 | – | > 100 | > 100 | > 100 | > 100 | > 100 | > 100 | > 100
20 | CC(=O)OC(OC(C)=O)c1c2ccccc2cc2ccccc12 | – | 32.9 | 40.1 | 41 | 37.2 | 67.3 | 44.8 | 16.9 | 31.8 | 40.7 | 28.6 | 25.8 | 37.7 | 28.3 | 33.4 | 59.9 | 51.8 | 43.5 | 96.3
21 | COc1c(C)c(C/C=C(\C)CC/C=C(\C)CC/C=C(\C)CC/C=C(\C)CCC=C(C)C)c(OC)c(OC)c1OC | 31.4 | > 100 | > 100 | > 100 | > 100 | > 100 | > 100 | > 100 | 23.2 | > 100 | > 100 | 38.1 | – | > 100 | 29.1 | 33.7 | 39.4 | 31.8 | > 100
22 | C=CC(=C)CCC(Br)C(C)(C)Br (stereo not drawn) | 30.6 | > 100 | > 100 | > 100 | > 100 | > 100 | > 100 | 45.7 | > 100 | > 100 | > 100 | > 100 | > 100 | > 100 | > 100 | – | > 100 | > 100 | > 100
23 | COc1nc2c(c(=O)[nH]1)N=C(c1ccccc1)CC(c1ccccc1)N2 (stereo not drawn) | > 100 | > 100 | 81.6 | > 100 | > 100 | > 100 | > 100 | 96.9 | > 100 | > 100 | > 100 | > 100 | > 100 | > 100 | > 100 | > 100 | – | > 100 | > 100
24 | COc1ccc2nc(N/N=C/c3ccc(C)s3)cc(C)c2c1 | > 100 | 29.6 | 43.9 | 39.4 | 38.5 | 38.1 | 37.7 | 35.5 | – | 37.5 | 25.7 | 30.5 | 41 | 35.9 | 39.8 | 33.7 | 54.7 | 42.6 | 34.8
25 | Cc1cc(C)n(CN(CCCCO)Cn2nc(C)cc2C)n1 | 48.1 | 71.2 | 78.6 | 80 | 31.7 | 58 | 33.9 | 50.7 | > 100 | 68.3 | 37.1 | > 100 | – | 36.4 | 60.6 | 51.2 | 65.2 | 36.7 | > 100
26 | Cc1cn(CC2(CO)CCC2)c(=O)[nH]c1=O | > 100 | > 100 | > 100 | > 100 | > 100 | > 100 | – | > 100 | > 100 | > 100 | > 100 | > 100 | > 100 | > 100 | > 100 | > 100 | – | > 100 | –
